Experimental data taken from patent US5693815A, “Peptides” (Schering Corporation, priority 1995, dated 1997).

Target: HIV-1 protease (Human immunodeficiency virus type 1 group M subtype B, UniProt P04585)
Test: Inhibition of proteolytic activity of HIV-1 protease, Test 1 (method of Louis et al.)
Format: biochemical
Description: TEST 1--INHIBITION OF PROTEOLYTIC ACTIVITY OF HIV-1-PROTEASE
The ability of compounds of the invention to inhibit the proteolytic activity of HIV-1 protease can be determined by using the method of Louis, et al., Biochem. Biophys. Res. Comm. 159:87-94, (1989), which is herein incorporated by reference. In using the method of Louis et al., HIV Substrate III, His-Lys-Ala-Arg-Val-Leu-pNO2 Phe-Glu-Ala-Nle-Ser-NH2 purchased from Bachem Bioscience, Inc. Philadelphia, Pa. can be used in place of the nonapeptide substrate […]amide.

With `CC(C)(C)NC(=O)c1ccccc1SCC(O)C(Cc1ccccc1)NC(=O)C1CC2CCCCC2N1C(=O)OC(C)(C)C` (stereo not shown) [U, 1-[(1,1-dimethylethoxy)carbonyl]-N-[3-[[2-[[(1,1-dimethylethyl)amino]carbonyl]phenyl]thio]-2(R and/or S)-hydroxy-1(R and/or S)-(phenylmethyl)-propyl]octahydroindole-2-carboxamide] as the molecule, how does the IC50 read?
Its IC50 is 38 µM.
